Tested on: cultured cardiomyocytes
Assay: Pulsations of cultured cardiomyocytes before and after drug administration, by motion detection on moving images (drug evaluation apparatus)
Assay type: cell-based
Details: for interval / timing of the pulsations (peak interval, rhythm of the pulsations): before vs after drug administration (after a predetermined time elapses), predetermined part of the observation region
Description: FIG. 24 is a block diagram illustrating a main configuration example of a drug evaluation apparatus. The drug evaluation apparatus 1300 illustrated in FIG. 24 is an apparatus that evaluates the impact (effects, side effects, and the like) of a drug using the motions of the cultured cardiomyocytes 500 to which the drug is administered.
The imaging unit 1101 images the cultured cardiomyocytes 500 before drug administration and after drug administration.
More specifically, the evaluation index data generating unit 1303 performs, for example, between frame images of the evaluation object image data which are the moving images of the cultured cardiomyocytes 500, motion detection (generation of motion vectors) of the cultured cardiomyocytes 500 for each of the blocks which are partial regions into which the entire region of the frame image is divided. That is, the evaluation index data generating unit 1303 performs the motion detection of each of the blocks for a predetermined duration (for a predetermined number of frames). This duration may be a time of the moving images imaged by the imaging unit 1101 or may be shorter than the time.
The evaluation index data generating unit 1303 further obtains a motion amount (the length of the motion vector) of each of the generated motion vectors. That is, the evaluation index data generating unit 1303 generates the motion amounts of each of the frames of each of the blocks for a predetermined duration.
When the motion amounts of the frames of a certain block obtained by the evaluation index data generating unit 1303 are arranged in time series, for example, the graph shown in FIG. 25 is obtained. FIG. 25 is a diagram showing a form of a change in the motion amount of a certain block with respect to time obtained by the evaluation index data generating unit 1303, that is, an example of a form of the pulsations of cells.
In the graph of FIG. 25, the horizontal axis represents the elapsed time (the number of frames), and the vertical axis represents the motion amount (pixels/frame). A curve 1311 (before) represents the pulsations of the cultured cardiomyocytes 500 before drug administration, and a curve 1312 (after) represents the pulsations of the cultured cardiomyocytes 500 after drug administration. In addition, in the graph of FIG. 25, a waveform of a single pulsation (a contraction and a relaxation) is shown.
The pulsations of cardiomyocytes include contractions and relaxations, and in the curve 1311 and the curve 1312, the crest formed on the left means a “contraction” operation, and the crest formed on the right means a “relaxation” operation. A point P1-1 represents the peak of the contraction of the curve 1311 (before), and a point P1-2 represents the peak of the relaxation of the curve 1311 (before). A point P2-1 represents the peak of the contraction of the curve […] (after), and a point P2-2 represents the peak of the relaxation of the curve 1312 (after).
FIG. 31 is a diagram showing an example of forms of pulsations before and after drug administration. All the 8 graphs shown in FIG. 31 are observation results of forms (changes in the motion amount absolute value with respect to time) of pulsations of a predetermined part in an observation region of the cultured cardiomyocytes 500. The horizontal axis represents the time (sec), and the vertical axis represents the motion amount absolute value (pixcel/frame) between frames. That is, the amplitudes shown in each of the graphs represents the pulsations of the cultured cardiomyocytes 500.
The graphs on the left of FIG. 31 represent forms of the pulsations before drug administration, and the graphs on the right represent forms of the pulsations after drug administration (after a predetermined time elapses after the administration).
In addition, FIG. 32 is a diagram showing an example of forms of variations of the pulsations before and after drug administration. […]

[1] = FIG. 31, before vs after drug administration
[2] = FIG. 32, overlapped pulsations after drug administration

| SMILES | motion amount absolute value at the peaks [1] | waveform of the relaxation (the width of the pulsation) [1] | interval / timing of the pulsations (peak interval, rhythm of the pulsations) (FIG. 31) | variations of the height of the peak in the waveform of the contraction [2] | variations of the waveform of the relaxation (magnitude, time and number of appearance of the peak, width (QT elongation)) [2] | variations of the pulsations (overlapped waveforms of repeated pulsations) (FIG. 32, before vs after drug administration) |
| --- | --- | --- | --- | --- | --- | --- |
| CC(C)NCC(O)c1ccc(NS(C)(=O)=O)cc1 (racemic) [DL-sotalol] | becomes unstable (has variations) | changes (becomes unstable) | the timing of the pulsation becomes unstable | also has significant variations | has significant variations | – |
| CC1(C)[C@@H](O)CC[C@]2(C)[C@H]3C(=O)C=C4[C@@H]5C[C@@](C)(C(=O)O)CC[C@]5(C)CC[C@@]4(C)[C@]3(C)CC[C@@H]12 [18-β-glycyrrhetinic acid] | become unstable (have variations) | – | become unstable (have variations) | has significant variations | – | – |
| CC(=O)Oc1ccccc1C(=O)O [aspirin, acetylsalicylic acid] | – | – | does not have a significant impact | – | – | do not have significant variations |

Source: US10311582B2, “Image processing apparatus and method for evaluating objects in an image” (Sony Corporation, priority 2010, dated 2019)
